The values below come from PubChem BioAssay (NCI).

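These data come from cells grown in 96-well plates and exposed to compound for 48 hours at five concentrations. TGI is the concentration that stops growth completely.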

Common to all, as to test: DTP human tumour cell line panel, 48 h
For experiment [1], the system named is SK-OV-3 ovarian.
Experiment [2] has as its system A498 renal.
Experiment [3] has as its system IGROV1 ovarian.
Experiment [4] relates to M14 melanoma.
Experiment [5] relates to EKVX NSCLC.
The subject of experiment [6] is UO-31 renal.
The subject of experiment [7] is HS 578T breast.
In experiment [8] the test system is RPMI-8226 leukemia.
For experiment [9], the system named is HT29 colon.
The subject of experiment [10] is SK-MEL-28 melanoma.
The test system of experiment [11] is OVCAR-5 ovarian.
Experiment [12] relates to MDA-MB-435.
Experiment [13] deals with SN12C renal.
In experiment [14] the test system is U251 CNS.
Experiment [15] relates to 786-0 renal.
Experiment [16] deals with HOP-62 NSCLC.
The subject of experiment [17] is HOP-92 NSCLC.
Experiment [18] concerns SR leukemia.
In experiment [19] the test system is UACC-257 melanoma.
For experiment [20], the system named is MDA-MB-231 breast.

Consider `O=C(Oc1cccnc1)c1cc2cc(CCl)ccc2oc1=O`, for which the TGI was greater than 100 µM in [1]; greater than 100 µM in experiment [2]; 66.3 µM in [3]; 53.1 µM in experiment [4]; 52.1 µM in experiment [5]; 44.5 µM in [6]. Moreover, the TGI was 55.1 µM in [7]; 66 µM in experiment [8]; 39.9 µM in [9]; greater than 100 µM in [10]; 64.6 µM in experiment [11]; 73 µM in experiment [12]. In addition, the TGI in experiment [13] is 50.1 µM; in experiment [14] it was 57.2 µM; in [15] it was 36.1 µM; in experiment [16] it was greater than 100 µM; in experiment [17] it was 36.9 µM; in experiment [18], 73.6 µM. The TGI in [19] is 98.7 µM; in [20] it was 43.2 µM.

`O=C(/C=C/c1ccc(OCc2cccc(Cl)c2)cc1)NO`: the total growth inhibition concentration (TGI) is 49.3 µM in experiment [1]; 27.8 µM in experiment [2]; 38 µM in [3]; greater than 100 µM in [4]; greater than 100 µM in [5]; 18.7 µM in experiment [6]. Besides, the TGI in experiment [7] is greater than 100 µM; in experiment [8], 44.8 µM; in experiment [9], 28.2 µM; in [10] it was greater than 100 µM; in [11] it was 71.5 µM; in experiment [12], 53.3 µM. The TGI in [13] was 49.4 µM; in [14], 47.9 µM; in experiment [15], 23.9 µM; in experiment [16] it was greater than 100 µM; in [17], 33.8 µM; in [18] it was 11.3 µM. In addition, the TGI in [19] is greater than 100 µM; in experiment [20], 44.1 µM.

Regarding `CC(C)(C)OC(=O)NC(Cc1ccc(OC(C)(C)C)cc1)C(=O)N[C@H]1CCC[C@H]1C(=O)NC(Cc1ccccc1)C(=O)N1CCCC1C(N)=O` (stereo not given in full), the total growth inhibition concentration (TGI) in experiment [1], in experiment [2], in experiment [3], in experiment [4], in experiment [5] and in experiment [6] was greater than 100 µM in each case. Besides, the total growth inhibition concentration (TGI) in [7], in experiment [8], in experiment [9], in experiment [10], in experiment [11] and in [12] was greater than 100 µM in each case. In addition, the concentration for total growth inhibition (TGI) in experiment [13], in experiment [14], in experiment [15], in experiment [16], in experiment [17] and in [18] was greater than 100 µM each time. Further, the TGI in experiment [19] and in [20] was greater than 100 µM throughout.

On to `CC1CC[C@@]2(OC1)OC1C[C@H]3[C@@H]4CC[C@H]5CC(OC6OC(CO)C(O)C(OC7OC(CO)C(OC8OC(CO)C(O)C(OC9OC(CO)C(O)C(O)C9O)C8OC8OC(CO)C(O)C(O)C8O)C(O)C7O)C6O)[C@H](O)CC5(C)[C@H]4CCC3(C)C1[C@@H]2C` (stereo not given in full), for which the TGI was determined as 14.1 µM in experiment [1]; 3.16 µM in [2]; 4.59 µM in experiment [3]; 17.6 µM in experiment [4]; 10.8 µM in [5]; 6.9 µM in experiment [6]. Also, the TGI was determined as 6.16 µM in experiment [7]; 12.9 µM in experiment [8]; 11.1 µM in experiment [9]; 14.5 µM in [10]; 12.9 µM in [11]; 14.6 µM in experiment [12]. Further, the TGI in [13] stood at 9.03 µM; in [14], 9.43 µM; in [15], 6.76 µM; in [16], 11.3 µM; in [17] it was 12.1 µM; in [18] it was 2.98 µM. The total growth inhibition concentration (TGI) was determined as 16.9 µM in experiment [19] and 5.87 µM in [20].

Regarding `CC(C(=O)OCc1ccccc1)(c1ccco1)N1C(=O)OC(c2ccccc2)C1c1ccccc1` (stereo not given), the TGI in experiment [1], in experiment [2], in experiment [3], in experiment [4], in [5] and in experiment [6] was greater than 100 µM each time. Also, the TGI in experiment [7], in experiment [8], in [9], in [10], in experiment [11] and in experiment [12] was greater than 100 µM in each case. Further, the TGI in [13], in experiment [14], in [15], in [16], in [17] and in experiment [18] was greater than 100 µM each time. For the same molecule, the total growth inhibition concentration (TGI) in experiment [19] and in experiment [20] was greater than 100 µM throughout.

Take `CC(=O)Oc1ccc2c(c1)c1c(=O)oc(C)nc1n2Cc1ccccc1`: the TGI was 98.6 µM in [1]; greater than 74.6 µM in [2]; greater than 100 µM in [3]; greater than 100 µM in experiment [4]; greater than 100 µM in [5]; 13.8 µM in experiment [6]. Moreover, the concentration for total growth inhibition (TGI) in [7] is greater than 100 µM; in experiment [8], greater than 100 µM; in experiment [9], greater than 100 µM; in [10] it was greater than 100 µM; in experiment [11], greater than 100 µM; in experiment [12], 99.4 µM. Also, the TGI in experiment [13], in experiment [14], in experiment [15], in experiment [16], in experiment [17] and in experiment [18] was greater than 100 µM in each case. The TGI in experiment [19] and in experiment [20] was greater than 100 µM in each case.
